From patent US7067486B2, “Acetylcholinesterase-derived peptides and uses thereof” (priority 1999, dated 2006)
Marks after values point to notes of the source that are not given here.

Assays:
Assay type in all cases: cell-based, human
CD34^+ cells [1] = test: Viable cell expansion in CD34+ liquid cultures (trypan blue exclusion); conditions: day 14; seeded at 50,000 cells/well; ARP 2 nM, cortisol 1.2 μM, ASP 2 nM, SCF 50 ng/ml, AS1 20 pM, PBAN 2 nM
Text: Cell Source: UCB was collected, following informed consent of the parents and with the approval of the Sourasky Medical Center Ethics Committee, as previously described [Grisaru et al. (1999a) Am. J. Obstet. Gynecol, 180, 1240–1243]. Following 1:1 (v/v) dilution in Iscove's modified Dulbecco medium (IMDM, Beit Haemek, Israel), mononuclear cells were separated using 3% gelatin (Difco, Detroit, Mich.) and Ficoll-Hypaque gradients (<1.077 g/ml; Pharmacia, Uppsala, Sweden) [Pick et al. (1998) Br. J. Haematol. 103, 639–50]. CD34^+ cells were enriched using CD34 immunoglobulin-coated magnetic beads (CD34 progenitor cell selection system, Dynal, Norway).CD34^+ cells analysis was performed by flow cytometry (Becton Dickinson Immunocytochemistry System Inc., San Jose, Calif.), using CD34-PE (Becton Dickinson Immunocytometry System, Inc.) and CD45-FITC (Dako, Glostrup, Denmark) monoclonal antibodies. […] Liquid Cultures: UCB CD34^+ cells were set for liquid cultures at a concentration of 10^5/mL in IMDM, containing 10% autologous plasma, 2 mM L-glutamine (Sigma Chemical Co., St Louis, Mo.), penicillin ([…]), streptomycin ([…]), amphotericin B (2×10^−5 M) (Sigma Chemical Co.), and heparin (20 IU/mL, Gibco, Grand Island, N.Y.), all in a fully humidified atmosphere at 37° C. and 5% CO2. The following elements were added where noted: • 1. Hematopoietic growth factors: Interleukin 3 (IL3, 5 ng/mL, Immunex, Seattle, Wash.), interleukin 6 (IL6, 50 ng/mL, R&D Systems, Minneapolis, Minn.), TPO (1 ng/mL, R&D Systems), stem cell factor (SCF, 10 ng/mL, R&D Systems), FLT-3 ligand (FLT3, 50 ng/mL, R&D Systems), granulocyte-macrophage colony stimulating factor (GM-CSF, 50 ng/mL, Biogenesis Ltd, Bournemouth, UK) and combinations of the above, for 24 hr to 28 days (supplemented every 4 days). • 2. Endothlial Growth factors: Epidermal growth factor (EGF 10 ng/ml, Sigma Chemical Co.), basic Fibroblast growth factor (bFGF 20 ng/ml, Sigma Chemical Co.) incubated in a serum free medium (SFM) for 48 hr. • 3. […] AChE C-terminal peptides: The following C-terminal peptides of the AChE synaptic (ASP, also denoted SEQ ID: No. 2) and readthrough (ARP, also denoted SEQ ID: No. 1) isoforms were synthesized using a 433A peptide synthesizer (PE Applied Biosystems, Inc., Norwalk, Conn.). • ASP: 1-[…]-40, also denoted as SEQ ID: No. 2. • ARP: 1-[…]-26, also denoted as SEQ ID: No. 1. […]

CD34^+ cells [2] = test: Cell phenotyping of CD34+ liquid cultures by flow cytometry (CD34, CD33, CD15, CD41)
Text: Cell Source: UCB was collected, following informed consent of the parents and with the approval of the Sourasky Medical Center Ethics Committee, as previously described [Grisaru et al. (1999a) Am. J. Obstet. Gynecol, 180, 1240–1243]. Following 1:1 (v/v) dilution in Iscove's modified Dulbecco medium (IMDM, Beit Haemek, Israel), mononuclear cells were separated using 3% gelatin (Difco, Detroit, Mich.) and Ficoll-Hypaque gradients (<1.077 g/ml; Pharmacia, Uppsala, Sweden) [Pick et al. (1998) Br. J. Haematol. 103, 639–50]. CD34^+ cells were enriched using CD34 immunoglobulin-coated magnetic beads (CD34 progenitor cell selection system, Dynal, Norway).CD34^+ cells analysis was performed by flow cytometry (Becton Dickinson Immunocytochemistry System Inc., San Jose, Calif.), using CD34-PE (Becton Dickinson Immunocytometry System, Inc.) and CD45-FITC (Dako, Glostrup, Denmark) monoclonal antibodies. […] Liquid Cultures: UCB CD34^+ cells were set for liquid cultures at a concentration of 10^5/mL in IMDM, containing 10% autologous plasma, 2 mM L-glutamine (Sigma Chemical Co., St Louis, Mo.), penicillin ([…]), streptomycin ([…]), amphotericin B (2×10^−5 M) (Sigma Chemical Co.), and heparin (20 IU/mL, Gibco, Grand Island, N.Y.), all in a fully humidified atmosphere at 37° C. and 5% CO2. The following elements were added where noted: • 1. […] Endothlial Growth factors: Epidermal growth factor (EGF 10 ng/ml, Sigma Chemical Co.), basic Fibroblast growth factor (bFGF 20 ng/ml, Sigma Chemical Co.) incubated in a serum free medium (SFM) for 48 hr. • 3. Stress mimicking conditions: Hydrocortisone sodium succinate (Abic Ltd., Netanya, Israel) at concentrations equivalent to normal, intermediate and stress serum cortisol levels (0.1, 0.6 and 1.2 μM, respectively (De Vroede et al., Arch. Des. […] Antisense oligonucleotides: 3′-terminal 2′-O-Methylated 15- and 20-mer oligodeoxynucleotides in the antisense (AS) orientation, targeted against the common sequence domain in human AChEmRNA and BuChE mRNA, as control, […], as detailed elsewhere [Grisaru et al. (1999b) Mol. Cell. Biol. 19, 788–95]. • 5. AChE C-terminal peptides: The following C-terminal peptides of the AChE synaptic (ASP, also denoted SEQ ID: No. 2) and readthrough (ARP, also denoted SEQ ID: No. 1) isoforms were synthesized using a 433A peptide synthesizer (PE Applied Biosystems, Inc., Norwalk, Conn.). • ASP: 1-[…]-40, also denoted as SEQ ID: No. 2. • ARP: 1-[…]-26, also denoted as SEQ ID: No. 1.
(§1) Culture Analyses: Twenty-four hr liquid cultures served for cytochemical staining, in situ hybridization, and cell proliferation assay by 5-bromo-2′-deoxy-Uridine (BrdU) incorporation [Grisaru et al. (1999b) id ibid.]. Twenty-eight day liquid cultures were sampled every 6–8 days for viable cell counting (using trypan blue dye exclusion), cell phenotyping (CD34^+, CD33^+ and CD41^+ quantification using flow cytometry, with CD34-PE, CD33-FITC (Immunotech/Coulter, Hialeah, Fla.), CD41-FITC (Immunoquality Products, Groningen, Netherlands) and CD45-FITC monoclonal antibodies), and growth of progenitor colony (granulocyte-macrophage and megakaryocytic), using previously described techniques (Pick et al. (1998) id ibid.). […] 11, 1049–57]. Nuclear staining w with 4′,6-diamidino-2- phenylindole [DAPI, see e.g., Peterson et al. (1999) Genetics 152, 427–439].

[3] = tested on: AChEmRNA transcripts (S, E, R); test: In situ hybridization of AChEmRNA transcripts in cultured CD34+ cells, confocal quantification; conditions: 24 hr
Method: In Situ Hybridization: In situ hybridization procedures, were performed on cultured cells and human fetal tissues, as detailed elsewhere [Grisaru et al. (1999b) id ibid; Kaufer et al. (1998) id ibid.]. Cultured cells were centrifuged at 300× g and fixed, using 4% paraformaldehyde, to collagen-coated cover slips placed on the bottom of the culture well. […] 5′-Biotinylated, 2′-O-methylated AChEcRNA probes complementary to 3′-alternative human ACHE exons were employed. Detection and quantification of the various AChEmRNA transcripts in fetal tissues were performed as previously described [Grisaru et al. (1999b) id ibid.]. Confocal microscopy scans of the culture-derived cells were obtained using a MRC-1024 Bio-Rad confocal microscope (Hemel Hempsted Herts., UK). A projection was built from each cell image and specific criteria were set for size and intensity of the Fagt Red fluorescence. […]
The assumption that hematopoietic ACHE gene expression is modulated under stress was tested in CD34^+ cells cultured for 24 hr with increasing doses of hydrocortisone. Treated cells were subjected to cytochemical staining for AChE activity as well as to high resolution in situ hybridization followed by confocal microscopic quantification of labeling density. […] Because each cRNA probe has its own characteristic hybridization affinity, each transcript was quantified separately. […]

AChE = test: Cytochemical staining of AChE catalytic activity in CD34+ cells; conditions: 24 hr
Text: as §1

CD34^+ cells [4] = test: BrdU incorporation into CD34+ cells (cell proliferation); conditions: GM-CSF alone, 16 hr
Text: Cell Source: UCB was collected, following informed consent of the parents and with the approval of the Sourasky Medical Center Ethics Committee, as previously described [Grisaru et al. (1999a) Am. J. Obstet. Gynecol, 180, 1240–1243]. Following 1:1 (v/v) dilution in Iscove's modified Dulbecco medium (IMDM, Beit Haemek, Israel), mononuclear cells were separated using 3% gelatin (Difco, Detroit, Mich.) and Ficoll-Hypaque gradients (<1.077 g/ml; Pharmacia, Uppsala, Sweden) [Pick et al. (1998) Br. J. Haematol. 103, 639–50]. CD34^+ cells were enriched using CD34 immunoglobulin-coated magnetic beads (CD34 progenitor cell selection system, Dynal, Norway).CD34^+ cells analysis was performed by flow cytometry (Becton Dickinson Immunocytochemistry System Inc., San Jose, Calif.), using CD34-PE (Becton Dickinson Immunocytometry System, Inc.) and CD45-FITC (Dako, Glostrup, Denmark) monoclonal antibodies. […] Liquid Cultures: UCB CD34^+ cells were set for liquid cultures at a concentration of 10^5/mL in IMDM, containing 10% autologous plasma, 2 mM L-glutamine (Sigma Chemical Co., St Louis, Mo.), penicillin ([…]), streptomycin ([…]), amphotericin B (2×10^−5 M) (Sigma Chemical Co.), and heparin (20 IU/mL, Gibco, Grand Island, N.Y.), all in a fully humidified atmosphere at 37° C. and 5% CO2. The following elements were added where noted: • 1. Hematopoietic growth factors: Interleukin 3 (IL3, 5 ng/mL, Immunex, Seattle, Wash.), interleukin 6 (IL6, 50 ng/mL, R&D Systems, Minneapolis, Minn.), TPO (1 ng/mL, R&D Systems), stem cell factor (SCF, 10 ng/mL, R&D Systems), FLT-3 ligand (FLT3, 50 ng/mL, R&D Systems), granulocyte-macrophage colony stimulating factor (GM-CSF, 50 ng/mL, Biogenesis Ltd, Bournemouth, UK) and combinations of the above, for 24 hr to 28 days (supplemented every 4 days). • 2. […] AChE C-terminal peptides: The following C-terminal peptides of the AChE synaptic (ASP, also denoted SEQ ID: No. 2) and readthrough (ARP, also denoted SEQ ID: No. 1) isoforms were synthesized using a 433A peptide synthesizer (PE Applied Biosystems, Inc., Norwalk, Conn.). • ASP: 1-[…]-40, also denoted as SEQ ID: No. 2. • ARP: 1-[…]-26, also denoted as SEQ ID: No. 1.
[…] Twenty-eight day liquid cultures were sampled every 6–8 days for viable cell counting (using trypan blue dye exclusion), cell phenotyping (CD34^+, CD33^+ and CD41^+ quantification using flow cytometry, with CD34-PE, CD33-FITC (Immunotech/Coulter, Hialeah, Fla.), CD41-FITC (Immunoquality Products, Groningen, Netherlands) and CD45-FITC monoclonal antibodies), and growth of progenitor colony (granulocyte-macrophage and megakaryocytic), using previously described techniques (Pick et al. (1998) id ibid.). […]

[5] = day 14, seeded at 50,000 cells/well, ARP 2 nM, cortisol 1.2 μM, ASP 2 nM, SCF 50 ng/ml, AS1 20 pM, PBAN 2 nM
[6] = 1.2 μM hydrocortisone (stress-associated level)
[7] = 2-week primary cultures of CD34+ cells from 1 to 3 individuals, ± SEM where noted

## C[C@]12CCC(=O)C=C1CC[C@@H]1[C@@H]2[C@@H](O)C[C@@]2(C)[C@H]1CC[C@]2(O)C(=O)COC(=O)CCC(=O)[O-].[Na+] [hydrocortisone, Hydrocortisone sodium succinate, reference compound]
CD34^+ cells [1]
  Total viable cells: 80.0 cells per culture × 10^−3
CD34^+ cells [2]; [5]
  CD33^+ (early myeloids): 45.0 cells per culture × 10^−3
  CD33^+ and CD15^+ (total myeloids): 73.0 cells per culture × 10^−3
  CD34^+ (early progenitors): 13.0 cells per culture × 10^−3
  CD41^+ (megakaryocytes): 10.1^b cells per culture × 10^−3
[3]; 0.60 μM hydrocortisone, above level at 0.10 μM, CD34+ cells
  selective increase in "readthrough" AChE-R mRNA transcript: 40%
[3]; [6]
  labeling of all 3 AChEmRNA transcripts: enhanced
AChE; 0.60 μM hydrocortisone
  enzyme activity of CD34+ cells: no change
AChE; [6]
  catalytic activity of the stem cell-associated enzyme: intensified

## GM-CSF
CD34^+ cells [4]
  BrdU incorporation into CD34+ cells: increased
CD34^+ cells [2]; [7]
  MK (CD41^+) fold expansion: 14.50 fold
  Myeloid (CD33^+) fold expansion: 1.35 fold
